In one assay the target is T1, USP21 (Homo sapiens, UniProt Q9UK80).
T1 sequence (Q9UK80 1-565): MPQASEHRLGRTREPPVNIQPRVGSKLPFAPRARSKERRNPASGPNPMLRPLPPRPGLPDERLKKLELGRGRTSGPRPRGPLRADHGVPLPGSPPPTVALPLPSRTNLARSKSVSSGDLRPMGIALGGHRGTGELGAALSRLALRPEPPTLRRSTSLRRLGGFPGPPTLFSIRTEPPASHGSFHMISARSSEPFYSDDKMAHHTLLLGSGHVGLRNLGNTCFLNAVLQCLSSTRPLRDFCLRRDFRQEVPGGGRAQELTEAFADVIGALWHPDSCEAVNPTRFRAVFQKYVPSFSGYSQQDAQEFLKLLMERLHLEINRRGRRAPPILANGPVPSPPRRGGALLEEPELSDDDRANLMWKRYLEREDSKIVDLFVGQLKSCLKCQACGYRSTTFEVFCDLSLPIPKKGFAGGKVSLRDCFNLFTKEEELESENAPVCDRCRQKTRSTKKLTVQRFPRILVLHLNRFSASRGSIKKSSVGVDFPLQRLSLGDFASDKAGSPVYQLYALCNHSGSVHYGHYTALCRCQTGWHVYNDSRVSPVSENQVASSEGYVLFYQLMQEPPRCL
As to the kind of experiment: biochemical. The arrangement: Ubiquigent DUB profiler selectivity panel, remaining enzyme activity as % of control. To be noted: read-out: % of control remaining. A digest of the protocol: (§1)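 In YFP-PRKN-overexpressing hTERT-RPE1 cells, 1 h antimycin A plus oligomycin A (1 μM each) with CMPD-39, then Western blot of TOMM20 ubiquitylation. Target engagement: 2 h compound, then 10 min HA-Ub-PA at 37°C, read as USP30 shift. DUB panel (>40 enzymes) screened at 1-100 μM.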

In another assay the target is T2, OTUD3 (Homo sapiens, UniProt Q5T2D3).
T2 sequence (Q5T2D3 1-398): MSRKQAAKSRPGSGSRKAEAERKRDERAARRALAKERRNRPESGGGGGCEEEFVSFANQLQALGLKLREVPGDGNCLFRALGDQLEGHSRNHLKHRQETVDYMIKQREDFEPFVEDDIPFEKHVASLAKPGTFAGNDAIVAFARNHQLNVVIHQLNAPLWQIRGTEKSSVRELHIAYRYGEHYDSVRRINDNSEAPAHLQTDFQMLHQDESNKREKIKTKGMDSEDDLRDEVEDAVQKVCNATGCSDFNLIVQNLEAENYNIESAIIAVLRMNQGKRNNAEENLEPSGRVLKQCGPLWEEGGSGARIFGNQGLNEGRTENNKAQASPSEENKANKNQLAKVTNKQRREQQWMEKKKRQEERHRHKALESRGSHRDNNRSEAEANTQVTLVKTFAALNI
Briefly: biochemical. The arrangement: Ubiquigent DUB profiler selectivity panel, remaining enzyme activity as % of control. Conditions: read-out: % of control remaining. In a few lines:
as §1

As to `CC(C)(C)NS(=O)(=O)c1ccc(NC(=O)[C@H](Cc2ccccc2)NC(=O)c2ccc(F)cc2)cc1` [compound 39, CMPD-39], on USP21, the remaining activity at 1 µM was determined as 102%, the remaining activity at 10 µM amounted to 94% and the remaining activity at 100 µM stood at 90.9%. At OTUD3, the remaining activity at 1 µM was found to be 105%, the remaining activity at 10 µM was 101% and the remaining activity at 100 µM is 107%.
